Entries after “also recorded” stand apart in the source; their conditions may differ.
Legend:
[1] = target: T1, recombinant GBA2 (Homo sapiens, UniProt Q9HCG7); assay: cell-free 4MUG assay with recombinant GBA2; type: biochemical; details: dose response, within the concentrations tested
T1 construct: purchased Abcam ab163631
T1 sequence (Q9HCG7 1-927): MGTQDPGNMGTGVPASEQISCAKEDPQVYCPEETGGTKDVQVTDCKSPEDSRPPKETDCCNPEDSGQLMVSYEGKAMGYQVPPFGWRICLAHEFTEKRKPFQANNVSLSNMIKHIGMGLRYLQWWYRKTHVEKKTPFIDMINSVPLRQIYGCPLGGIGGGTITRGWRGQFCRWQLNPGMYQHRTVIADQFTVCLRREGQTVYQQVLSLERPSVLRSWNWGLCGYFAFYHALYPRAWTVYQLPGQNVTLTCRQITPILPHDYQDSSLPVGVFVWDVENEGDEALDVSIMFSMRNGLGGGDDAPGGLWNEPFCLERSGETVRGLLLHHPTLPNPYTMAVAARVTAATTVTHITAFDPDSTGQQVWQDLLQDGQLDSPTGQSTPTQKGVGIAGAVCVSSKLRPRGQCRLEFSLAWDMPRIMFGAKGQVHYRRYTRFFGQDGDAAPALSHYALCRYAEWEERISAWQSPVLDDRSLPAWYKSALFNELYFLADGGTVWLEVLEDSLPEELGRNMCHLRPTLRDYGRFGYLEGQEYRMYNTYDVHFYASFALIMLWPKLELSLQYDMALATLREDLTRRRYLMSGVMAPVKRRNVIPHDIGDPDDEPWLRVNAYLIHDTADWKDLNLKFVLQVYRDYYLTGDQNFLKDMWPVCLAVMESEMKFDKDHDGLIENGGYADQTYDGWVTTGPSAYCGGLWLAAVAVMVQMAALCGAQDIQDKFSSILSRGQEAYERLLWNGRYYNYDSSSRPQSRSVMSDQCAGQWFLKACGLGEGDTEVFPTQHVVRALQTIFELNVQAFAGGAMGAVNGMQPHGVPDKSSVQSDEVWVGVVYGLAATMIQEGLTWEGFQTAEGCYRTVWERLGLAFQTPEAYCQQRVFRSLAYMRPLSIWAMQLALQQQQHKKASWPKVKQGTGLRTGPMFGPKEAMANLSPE
Protocol: The assay buffer consisted of 44 mM Citric Acid, 111 mM Na2HPO4, pH 5.5, 0.1% Triton X-100. […] A 10-fold intermediate solution of compound serial dilution was prepared in an assay buffer; half log dilutions were used. In a black 384-well plate (ThermoFisher, 267461) we added 5 μl of enzyme solution and 1 μl of compounds when appropriate, and incubated for 30 minutes at room temperature. 2 mM solution of 4MUG was prepared in an assay buffer. To start the reaction, 4.5 μl/well of this solution was added to the enzyme plate and was incubated for 30 minutes at 37°C. To stop the reaction, a 1M glycine solution, adjusted to pH = 10 using 1M NaOH was used. The fluorescent signal was detected using the Envision Multilabel Plate Reader (Perkin Elmer) at excitation = 355nm and emission = 450nm.

[2] = target: T2, recombinant GBA3 (Homo sapiens, UniProt Q9H227); assay: cell-free 4MUG assay with recombinant GBA3; type: biochemical; details: for less potent against GBA3 than GBA1: selectivity GBA1 over GBA3
T2 construct: purchased R&D Systems 5969-GH-10
T2 sequence (Q9H227 1-469): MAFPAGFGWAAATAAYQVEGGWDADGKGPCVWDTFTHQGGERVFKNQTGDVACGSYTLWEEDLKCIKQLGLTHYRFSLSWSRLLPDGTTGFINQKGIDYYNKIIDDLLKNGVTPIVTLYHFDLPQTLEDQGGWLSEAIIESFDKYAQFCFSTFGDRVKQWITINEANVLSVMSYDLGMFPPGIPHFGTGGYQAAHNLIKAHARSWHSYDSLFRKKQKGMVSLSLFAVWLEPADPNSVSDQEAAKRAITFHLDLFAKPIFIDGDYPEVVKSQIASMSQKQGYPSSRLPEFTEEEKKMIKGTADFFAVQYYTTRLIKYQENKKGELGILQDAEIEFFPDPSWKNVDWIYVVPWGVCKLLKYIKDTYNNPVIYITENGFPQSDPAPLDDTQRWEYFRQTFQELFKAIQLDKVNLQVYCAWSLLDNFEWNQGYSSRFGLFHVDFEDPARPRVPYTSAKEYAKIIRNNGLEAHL
Protocol: After incubation, 100 μl of assay buffer was added to the plate. The assay buffer was composed of 0.1 M citric acid and 0.2 M sodium phosphate dibasic adjusted to pH = 5.4 unless stated otherwise (McIlvaine Buffer). […] For IC50 and EC50 experiments using compounds an assay buffer of pH 5.4 was used.
The substrate, 4-methylumbelliferyl β-D-glucopyranoside (4MUG, Sigma, M3633) was then added to the plate to a final concentration of 1.7 mM (25 μl). 4MUG was freshly solubilized in water at 37°C prior to each experiment. The recombinant protein, compound, assay buffer, and substrate were incubated at 37°C for 30 minutes.
In experiments directly comparing enzymatic activities of GBA1, GBA2 and GBA3 (S1 Fig., S2 Fig. c, d) the following conditions were used. […] A 10-fold intermediate solution of compound serial dilution was prepared in an assay buffer; half log dilutions were used. […] 2 mM solution of 4MUG was prepared in an assay buffer. To start the reaction, 4.5 μl/well of this solution was added to the enzyme plate and was incubated for 30 minutes at 37°C. To stop the reaction, a 1M glycine solution, adjusted to pH = 10 using 1M NaOH was used. […] To test the effect of sodium taurocholate (Sigma, T4009), the assay was performed using the same procedure described in this paragraph. The assay buffer contained either 0mM (same as above), 3 mM, 7 mM or 20 mM Sodium Taurocholate.

| effect on activity of recombinant GBA2 ([1]; listed as isofagomine) | effect on GBA3 activity ([2]; 1 μM) | less potent against GBA3 than GBA1 [2] [fold] | less potent against GBA3 than GBA1 ([2]; listed as isofagomine) [fold] | Compound | effect on activity of recombinant GBA2 [1] | effect on activity of recombinant GBA3 ([2]; dose response, within the concentrations tested) |
| --- | --- | --- | --- | --- | --- | --- |
| Minimal effect | did not have any substantial effect | > 100 | ≥ 100 | OC[C@H]1CNC[C@@H](O)[C@@H]1O [Isofagomine, isofagomine] | almost no effect |  |
|  |  |  |  | O[C@H]1[C@H](O)[C@@H](O)[C@@H]2O[C@@H]2[C@@H]1O [CBE] | did not inhibit; also recorded: does not alter activity | did not inhibit; also recorded: does not alter activity |

— paper PMC4357465, “Tool Compounds Robustly Increase Turnover of an Artificial Substrate by Glucocerebrosidase in Human Brain Lysates” (PLoS ONE, 2015)
